This passage reports DC50 results from US12391686B2, “Compounds and uses thereof” (Foghorn Therapeutics Inc., priority 2019, dated 2025).

Molecules are shown by their SMILES. Read-outs that look alike come from different tables or passages of the source.

This assay has as its target T1, Nanoluciferase-BRD9 fusion protein (3×FLAG-NLuc-BRD9) in SYO-1 cells (Homo sapiens, UniProt Q9H8M2).
T1 construct: expressed in transfected cells; host or cells: SYO-1
T1 sequence (Q9H8M2 1-597): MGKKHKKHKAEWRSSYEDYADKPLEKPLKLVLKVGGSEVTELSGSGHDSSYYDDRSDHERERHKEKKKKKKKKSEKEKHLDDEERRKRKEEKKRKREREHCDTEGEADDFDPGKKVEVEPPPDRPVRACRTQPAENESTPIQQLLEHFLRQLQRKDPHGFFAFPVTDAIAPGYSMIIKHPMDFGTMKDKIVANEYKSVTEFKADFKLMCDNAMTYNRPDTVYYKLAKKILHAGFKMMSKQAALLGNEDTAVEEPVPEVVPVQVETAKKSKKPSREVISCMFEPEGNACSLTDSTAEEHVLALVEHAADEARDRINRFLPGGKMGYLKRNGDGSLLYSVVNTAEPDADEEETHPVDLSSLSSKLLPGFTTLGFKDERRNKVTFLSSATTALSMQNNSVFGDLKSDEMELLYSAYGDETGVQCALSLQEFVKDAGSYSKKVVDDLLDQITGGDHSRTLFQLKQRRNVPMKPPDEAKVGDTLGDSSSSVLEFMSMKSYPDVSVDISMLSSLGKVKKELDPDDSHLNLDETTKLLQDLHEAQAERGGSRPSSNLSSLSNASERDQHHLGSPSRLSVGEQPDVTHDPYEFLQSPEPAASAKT
The assay is described as follows: SYO1 BRD9 NanoLuc Degradation Assay. Format: cell-based. As to conditions: SYO-1 cells expressing 3×FLAG-NLuc-BRD9, 6 hours incubation, 1 μM top dose, read-out: SYO1 BRD9-NanoLuc degradation IC50. In outline: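 Stable 3×FLAG-NLuc-BRD9 SYO-1 line, 8000 cells/well, dosed day 1 with 10-point 3-fold dilutions (1 μM final top, duplicates) for 6 h. NanoLuc bioluminescence read with Nano-Glo; % inhibition relative to DMSO (high) and 1 μM reference BRD9 degrader (low) controls.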

Turning to `COc1cc(-c2cn(C)c(=O)c3cnc(C4(C)CC4)cc23)cc(OC)c1CN1CCC(CCN2CCN(c3ccc4c(c3)C(=O)N(C3CCC(=O)NC3=O)C4=O)CC2)CC1` (centres unmarked) [Compound D216], the DC50 (Table 6C) was less than 10 nM.
For `COc1cc2c(-c3cc(OC)c(CN4CCN(c5cccc(OC6CCC(=O)NC6=O)c5)CC4)c(OC)c3)cn(C)c(=O)c2cn1` (centres unmarked) [Compound D282], the DC50 (Table 6C) was 10 to 100 nM.
On the same count and under the same terms, to `COc1cc(-c2cn(C)c(=O)c3cnc(N4CC(F)(F)C4)cc23)cc(OC)c1CN1CCN(c2ccc3c(c2)C(=O)N(C2CCC(=O)NC2=O)C3)CC1(C)C` (centres unmarked) [Compound D278] belongs less than 10 nM; to `COc1cc(-c2cn(C)c(=O)c3cnc(C4(C)CC4)cc23)cc(OC)c1CN1CCC(CCN2CCN(c3ccc4c(c3)C(=O)N(C3CCC(=O)NC3=O)C4)CC2)CC1` (centres unmarked) [Compound D237], less than 10 nM.
For `COc1cc(-c2cn(C)c(=O)c3ccc(N(C)C)cc23)cc(OC)c1CN1CC(CN2CCC3(CC2)CN(c2ccc4c(c2)C(=O)N(C2CCC(=O)NC2=O)C4)C3)C1` (centres unmarked) [Compound D285], where the note is “Table 6C”, the DC50 is no less than 1000 nM.
Regarding `COc1cc(-c2cn(C)c(=O)c3cnc(C4CC4)cc23)cc(OC)c1CN1CCC(CN2CCC3(CC2)CC(Oc2ccc4c(c2)C(=O)N(C2CCC(=O)NC2=O)C4)C3)CC1` (centres unmarked) [Compound D302], the DC50 (Table 6C) was less than 10 nM.
As for `COc1cc(-c2cn(C)c(=O)c3cnc(N(C)C)cc23)cc(OC)c1CN1CCC(CN2CCC3(CC2)CN(c2ccc4c(c2)C(=O)N(C2CCC(=O)NC2=O)C4=O)C3)CC1` (centres unmarked) [Compound D125], the DC50 (Table 6B) is less than 10 nM.
The same measure, in the same setting: for `COc1cc(-c2cn(C)c(=O)c3cnc(N(C)C)cc23)cc(OC)c1CN1CCC(C(=O)N2CCC3(CC2)CC(Oc2ccc4c(c2)C(=O)N(C2CCC(=O)NC2=O)C4=O)C3)C(OC)C1` (centres unmarked) [Compound D111] the value was less than 10 nM.
Still for that read-out and setting: for `COc1cc(-c2cn(C)c(=O)c3cnc(N(C)C)cc23)c2c(c1)N(CCCCCCCCOc1ccc3c(c1)C(=O)N(C1CCC(=O)NC1=O)C3=O)CC2` (centres unmarked) [Compound D45] the value was 100 to 1000 nM; for `COc1cc(-c2cn(C)c(=O)c3cnc(N(C)C)cc23)cc(OC)c1CN1CCN(C2CCN(c3ccc4c(c3)C(=O)N(C3CCC(=O)NC3=O)C4=O)CC2)CC1` (centres unmarked) [Compound D53], less than 10 nM.
For `COc1cc(-c2cn(C)c(=O)c3cnc(N(C)C)cc23)cc(OC)c1CN1CC(C(=O)N2CC3(CCN(c4ccc5c(c4)C(=O)N(C4CCC(=O)NC4=O)C5=O)C3)C2)C1` (centres unmarked) [Compound D66], the DC50 (Table 6B) was less than 10 nM.
Regarding `COc1cc(-c2cn(C)c(=O)c3cnc(N(C)C)cc23)cc(OC)c1CN1CCC2(CC1)CC(Oc1ccc3c(c1)C(=O)N(C1CCC(=O)NC1=O)C3=O)C2` (centres unmarked) [Compound D58], under “Table 6B”, the DC50 is less than 10 nM.
The same measure, in the same setting: for `COc1cc(-c2cn(C)c(=O)c3cnc(N(C)C)cc23)cnc1CN1CCC(CCN2CCN(c3ccc4c(c3)C(=O)N(C3CCC(=O)NC3=O)C4=O)CC2)CC1` (centres unmarked) [Compound D48] the value was less than 10 nM.
For the molecule `COc1cc(-c2cn(C)c(=O)c3cnc(N(C)C)cc23)cc(OC)c1CN1CC(S(=O)(=O)NCCOCCOCCNc2cccc3c2C(=O)N(C2CCC(=O)NC2=O)C3=O)C1` (centres unmarked) [Compound D37], the DC50 (Table 6B) was less than 10 nM.
Same read-out and setting: for `COc1cc(-c2cn(C)c(=O)c3cnc(N(C)C)cc23)cc(OC)c1CN1CCN(C2(COc3cccc4c3C(=O)N(C3CCC(=O)NC3=O)C4=O)COC2)CC1` (centres unmarked) [Compound D100] the value was less than 10 nM.
Still for that read-out and setting: to `COc1cc(-c2cn(C)c(=O)c3cnc(N(C)C)cc23)cc(OC)c1CN1CCN([C@@H](C)COc2ccc3c(c2)C(=O)N(C2CCC(=O)NC2=O)C3=O)CC1` (some centres unmarked) [Compound D76] belongs less than 10 nM.
Take `[2H]C([2H])([2H])n1cc(-c2cc(OC)c(CN3CC(Oc4ccc5c(c4)C(=O)N(C4CCC(=O)NC4=O)C5)C3)c(OC)c2)c2cc(OC)ncc2c1=O` (centres unmarked) [Compound D239]: the DC50 (Table 6C) is less than 10 nM.
Still for that read-out and setting: for `COc1cc(-c2cn(C)c(=O)c3cnc(C4CC4)cc23)cc(OC)c1CN1CCC(CCN2CCN(c3ccc4c(c3)C(=O)N(C3CCC(=O)NC3=O)C4)CC2)CC1` (centres unmarked) [Compound D305] the value was less than 10 nM.
Consider `COc1cc(-c2cn(C)c(=O)c3cnc(N(C)C)cc23)cc(OC)c1CN1CCN(C(C)COc2cccc3c2C(=O)N(C2CCC(=O)NC2=O)C3=O)CC1` (centres unmarked) [Compound D71], for which, for the setting “Table 6B”, the DC50 is less than 10 nM.
Regarding `COc1cc2c(-c3cc(OC)c(CN4CCC(c5ccc6c(c5)CN(C5CCC(=O)NC5=O)C6=O)CC4)c(OC)c3)cn(C)c(=O)c2cn1` (centres unmarked) [Compound D235], for the setting “Table 6C”, the DC50 is less than 10 nM.
Regarding `COc1cc2c(-c3cc(OC)c(CN4CCN(CCC5CCN(c6ccc7c(c6)CN(C6CCC(=O)NC6=O)C7=O)CC5)CC4)c(OC)c3)cn(C)c(=O)c2cn1` (centres unmarked) [Compound D224], the DC50 (Table 6C) was less than 10 nM.
The same measure, in the same setting: for `COc1cc(-c2cn(C)c(=O)c3cnc(N4CC[C@@H]4C)cc23)cc(OC)c1CN1CCC(CN2CCC3(CC2)CN(c2ccc4c(c2)C(=O)N(C2CCC(=O)NC2=O)C4)C3)CC1` (some centres unmarked) [Compound D207] the value was less than 10 nM.
Turning to `COc1cc(-c2cn(C)c(=O)c3cnc(N4CCC4)cc23)cc(OC)c1CN1CCC2(CC1)CN(c1ccc3c(c1)C(=O)N(C1CCC(=O)NC1=O)C3=O)C2` (centres unmarked) [Compound D126], the DC50 (Table 6B) is less than 10 nM.
For `COc1cc(-c2cn(C)c(=O)c3cnc(N4CCOCC4)cc23)cc(OC)c1CN1CCC(C(N2CCC3(CC2)CC(Oc2ccc4c(c2)C(=O)N(C2CCC(=O)NC2=O)C4=O)C3)C(F)(F)F)CC1` (centres unmarked) [Compound D196], under “Table 6C”, the DC50 is less than 10 nM.
Regarding `COc1cc(-c2cn(C)c(=O)c3cnc(N4CCC4)cc23)cc(OC)c1CN1CC(N2CCC(c3ccc4c(c3)CN(C3CCC(=O)NC3=O)C4=O)CC2)C1` (centres unmarked) [Compound D177], under “Table 6B”, the DC50 was less than 10 nM.
As to `COc1cc(-c2cn(C)c(=O)c3cnc(N(C)C)cc23)cc(OC)c1CN1CCC2(CC1)CN(c1ccc3c(c1)CN(C1CCC(=O)NC1=O)C3=O)C2` (centres unmarked) [Compound D127], the DC50 (Table 6B) is less than 10 nM.
`COc1cc(-c2cn(C)c(=O)c3cnc(N4CC[C@@H]4C)cc23)cc(OC)c1CN1CC(CN2CCC3(CC2)CN(c2ccc4c(c2)C(=O)N(C2CCC(=O)NC2=O)C4)C3)C1` (some centres unmarked) [Compound D213]: for the setting “Table 6C”, the DC50 was less than 10 nM.
As to `COc1cc(-c2cn(C)c(=O)c3cnc(N(C)C)cc23)cc(OC)c1CN1CCC(CCCN2CCN(C3CCC(=O)NC3=O)C(=O)C2)CC1` (centres unmarked) [Compound D117], the DC50 (Table 6B) lay in the range of 10 to 100 nM.
With `COc1cc(-c2cn(C)c(=O)c3cnc(N(C)C)cc23)cc(OC)c1CN1CCC(CN2CCC3(CC2)CN(c2ccc4c(c2)C(=O)N(C2CCC(=O)NC2=O)C4)C3)C(F)(F)C1` (centres unmarked) [Compound D236], the DC50 (Table 6C) was less than 10 nM.
For the molecule `COc1cc(-c2cn(C)c(=O)c3cnc(N(C)C)cc23)cc(OC)c1CN1CCN(c2cnn(C3CCC(=O)NC3=O)c2)CC1` (centres unmarked) [Compound D270], the DC50 (Table 6C) lay within 10 to 100 nM.
As to `COc1cc(-c2cn(C)c(=O)c3cnc(N(C)C)cc23)cc(OC)c1CN1CCC(c2ccc3c(c2)C(=O)N(C2CCC(=O)NC2=O)C3)CC1` (centres unmarked) [Compound D296], under “Table 6C”, the DC50 was less than 10 nM.
For the molecule `COc1cc(-c2cn(C)c(=O)c3cnc(N(C)C)cc23)cc(OC)c1CN1CCC2(CCN(c3ccc4c(c3)C(=O)N(C3CCC(=O)NC3=O)C4=O)C2)C1` (centres unmarked) [Compound D90], the DC50 (Table 6B) was less than 10 nM.
Regarding `COc1cc(-c2cn(C)c(=O)c3cnc(N4CCC4)cc23)cc(OC)c1CN1CCC(C(=O)N2CCC3(CC2)CC(Oc2ccc4c(c2)C(=O)N(C2CCC(=O)NC2=O)C4=O)C3)CC1` (centres unmarked) [Compound D79], the DC50 (Table 6B) is less than 10 nM.
Still for that read-out and setting: to `COc1cc(-c2cn(C)c(=O)c3cnc(N4CCC4)cc23)cc(OC)c1CN1CC(c2ccc3c(c2)C(=O)N(C2CCC(=O)NC2=O)C3=O)C1` (centres unmarked) [Compound D146] belongs less than 10 nM.
Consider `COc1cc2c(-c3cc(OC)c(CN4CCC(CN5CCC6(CC5)CN(c5ccc7c(c5)C(=O)N(C5CCC(=O)NC5=O)C7)C6)CC4)c(OC)c3)cn(C)c(=O)c2cn1` (centres unmarked) [Compound D289], for which the DC50 (Table 6C) was less than 10 nM.
In the case of `COc1cc(-c2cn(C)c(=O)c3cnc(N(C)C)cc23)cc(OC)c1CN1CCC(CN2CCC3(CC2)CC(Oc2cc4c(cc2F)C(=O)N(C2CCC(=O)NC2=O)C4=O)C3)CC1` (centres unmarked) [Compound D129], where the note is “Table 6B”, the DC50 is less than 10 nM.
Turning to `COc1cc(-c2cn(C)c(=O)c3cnc(N4CC(F)(F)C4)cc23)cc(OC)c1CN1CCC(CCN2CCC3(CC2)CN(c2ccc4c(c2)C(=O)N(C2CCC(=O)NC2=O)C4)C3)CC1` (centres unmarked) [Compound D241], the DC50 (Table 6C) is less than 10 nM.
As for `COc1cc(-c2cn(C)c(=O)c3cnc(N(C)C)cc23)cc(OC)c1CN1CCC2(C1)CN(c1ccc3c(c1)C(=O)N(C1CCC(=O)NC1=O)C3=O)C2` (centres unmarked) [Compound D91], the DC50 (Table 6B) was less than 10 nM.
Take `COc1cc(-c2cn(C)c(=O)c3cnc(N(C)C)cc23)cc(OC)c1CN1CCC2(CC1)CC(N1CCN(C3CCC(=O)NC3=O)C(=O)C1)C2` (centres unmarked) [Compound D251]: under “Table 6C”, the DC50 was no less than 1000 nM.
Same read-out and setting: for `COc1cc(-c2cn(C)c(=O)c3cnc(C(C)(C)O)cc23)cc(OC)c1CN1CCC(CN2CCC3(CC2)CC(Oc2ccc4c(c2)C(=O)N(C2CCC(=O)NC2=O)C4)C3)CC1` (centres unmarked) [Compound D228] the value was less than 10 nM; for `COc1cc(-c2cn(C)c(=O)c3cnc(C4CC4)cc23)cc(OC)c1CN1CCC2(CC1)CN(c1ccc3c(c1)C(=O)N(C1CCC(=O)NC1=O)C3=O)C2` (centres unmarked) [Compound D219], less than 10 nM.
